Experimental data published in PubChem BioAssay (NCI).
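Following 48 hours of exposure in 96-well plates, responses at five concentrations were used to interpolate endpoints linearly. Definition used: TGI = concentration required for complete inhibition of growth.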

Assays:
Assay in all cases: growth of human tumour cells (NCI), 48 h
ACHN renal = test system: ACHN renal
CAKI-1 renal = test system: CAKI-1 renal
DMS 114 small cell lung = test system: DMS 114 small cell lung
HCC-2998 colon = test system: HCC-2998 colon
HT29 colon = test system: HT29 colon
K-562 leukemia = test system: K-562 leukemia
M14 melanoma = test system: M14 melanoma
NCI-H23 lung = test system: NCI-H23 lung
OVCAR-5 ovarian = test system: OVCAR-5 ovarian
RPMI-8226 leukemia = test system: RPMI-8226 leukemia
SF-268 CNS = test system: SF-268 CNS
SK-MEL-28 melanoma = test system: SK-MEL-28 melanoma
SK-OV-3 ovarian = test system: SK-OV-3 ovarian
SR leukemia = test system: SR leukemia
SW-620 colon = test system: SW-620 colon
TK-10 renal = test system: TK-10 renal
U251 CNS = test system: U251 CNS
SNB-75 CNS = test system: SNB-75 CNS
HS 578T breast = test system: HS 578T breast
MDA-MB-435 = test system: MDA-MB-435

Row | SMILES | TGI (ACHN renal) | TGI (CAKI-1 renal) | TGI (DMS 114 small cell lung) | TGI (HCC-2998 colon) | TGI (HT29 colon) | TGI (K-562 leukemia) | TGI (M14 melanoma) | TGI (NCI-H23 lung) | TGI (OVCAR-5 ovarian) | TGI (RPMI-8226 leukemia) | TGI (SF-268 CNS) | TGI (SK-MEL-28 melanoma) | TGI (SK-OV-3 ovarian) | TGI (SR leukemia) | TGI (SW-620 colon) | TGI (TK-10 renal) | TGI (U251 CNS) | TGI (SNB-75 CNS) | TGI (HS 578T breast) | TGI (MDA-MB-435)
1 | COc1cc2c(c(OC)c1O)-c1ccc(SC)c(=O)cc1C(NC(C)=O)CC2 (stereo not drawn) | > 100 µM | > 100 µM | < 0.0143 µM | > 100 µM | > 100 µM | > 100 µM | > 100 µM | 3.79 µM | > 100 µM | > 100 µM | > 100 µM | > 100 µM | > 100 µM | > 100 µM | > 100 µM | > 100 µM | > 5.55 µM |  |  | 
2 | Cc1c2n(c(=O)[nH]c1=O)C1OC(CO)C(O2)C1N=[N+]=[N-] (stereo not drawn) | > 100 µM | > 100 µM | > 100 µM |  | > 100 µM | > 100 µM |  | > 100 µM |  | > 100 µM | > 100 µM | > 100 µM | > 100 µM | > 100 µM | > 100 µM | > 100 µM | > 100 µM | > 100 µM |  | 
3 | N/C(=N\N=C/c1ccc(O)c(O)c1O)NO |  | 55.3 µM | 54.8 µM | 96.6 µM | 35.1 µM | 48 µM |  | 68.4 µM | > 73.6 µM | > 100 µM | > 100 µM | > 100 µM | > 100 µM |  | 39.1 µM |  | > 83.6 µM | > 46.5 µM |  | 
4 | C[n+]1c2ccccc2c(NCC(=O)O)c2ccccc21 | > 100 µM | > 100 µM | > 100 µM | > 100 µM | > 100 µM | > 100 µM | > 100 µM | > 100 µM | > 100 µM | > 100 µM | > 100 µM |  | > 100 µM | > 100 µM | > 100 µM | > 100 µM | > 100 µM | > 100 µM |  | 
5 | S=C1NCCN1 | > 100 µM | > 100 µM | > 100 µM |  | > 100 µM | > 100 µM | > 100 µM | > 100 µM | > 100 µM | > 100 µM | > 100 µM | > 100 µM | > 100 µM | > 100 µM | > 100 µM | > 100 µM | > 100 µM | > 100 µM |  | 
6 | CC1(C)CCc2ccc(OCCC(=O)O)cc2O1 | > 100 µM | > 100 µM | > 100 µM |  | > 100 µM | > 100 µM | > 100 µM | > 100 µM | > 100 µM | > 100 µM | > 100 µM |  | > 100 µM | > 100 µM | > 100 µM |  | > 100 µM | > 100 µM |  | 
7 | CN(C)c1ccc(C2CC(c3ccc4ccccc4c3O)=NN2)cc1 (stereo not drawn) | > 100 µM | > 100 µM |  | > 100 µM | > 100 µM | 90.2 µM | > 100 µM | > 100 µM | > 100 µM | > 100 µM | > 100 µM | > 100 µM | > 100 µM | 51.7 µM | > 100 µM | > 100 µM | > 100 µM | > 100 µM | > 100 µM | > 100 µM
8 | CCCCCCNC(=O)C(C)C1CCC2(C)C=CC(=O)C(C)=C2C1O (stereo not drawn) |  | > 100 µM | > 100 µM | > 100 µM | > 100 µM | > 100 µM |  | > 100 µM | > 100 µM | > 100 µM | > 100 µM | > 100 µM | > 100 µM |  | > 100 µM |  | > 100 µM | > 100 µM |  | 
9 | O=C1N(Cl)C(=O)C(c2ccc(Cl)cc2)(c2ccc(Cl)cc2)N1Cl | > 100 µM | > 100 µM | > 100 µM | > 100 µM | > 100 µM | > 100 µM | > 100 µM | > 100 µM |  | > 100 µM | > 100 µM | > 100 µM | > 100 µM | > 100 µM | > 100 µM | > 100 µM | > 100 µM | > 100 µM |  | 
10 | NC(N)=Nc1ccc(-c2ccc(N=C(N)N)cc2)cc1 | > 100 µM | > 100 µM |  | > 100 µM | > 100 µM | > 100 µM | > 100 µM | > 100 µM | 81.3 µM | 66.3 µM | > 100 µM | > 100 µM | > 100 µM | > 100 µM | > 100 µM | 36.5 µM | > 100 µM | 86.1 µM | 67.3 µM | > 100 µM
11 | O=C(Nc1ccccc1)OCCN=C1c2ccccc2C(Br)C(Br)c2ccccc21 (stereo not drawn) | 20.6 µM | 16.2 µM |  | 20.8 µM | 14.6 µM | 7.03 µM | 12.4 µM | 25.9 µM | > 31.6 µM | 19.9 µM | 15.6 µM | 16.1 µM | 22.5 µM | 7.08 µM | 16.3 µM | 18.5 µM | 16.5 µM | 26.5 µM | 22 µM | 17.1 µM
12 | CO[C@]1(c2ccc([N+](=O)[O-])cc2)Oc2ccccc2C(=O)[C@@]1(Nc1ccc(C=O)cc1)OC | > 10 µM | > 10 µM |  | > 10 µM | > 10 µM | > 10 µM | > 10 µM | > 10 µM | > 10 µM | > 10 µM | > 10 µM | > 10 µM | > 10 µM | > 10 µM | > 10 µM | > 10 µM | > 10 µM | > 10 µM | > 10 µM | > 10 µM
13 | COc1ccc(N2CN3OC(=O)N(c4ccc(OC)cc4)[C@@]3(c3ccccc3)C2)cc1 | > 100 µM | > 100 µM |  | > 100 µM | 50.6 µM | > 100 µM | > 100 µM | > 100 µM | > 100 µM | > 100 µM | > 100 µM | > 100 µM | > 100 µM | 66.2 µM | > 100 µM | > 100 µM | > 100 µM | 95.2 µM | > 100 µM | 7.12 µM
14 | CN1CCc2cc3c(c4c2C1C(O)c1ccccc1-4)OCO3 (stereo not drawn) | > 100 µM | 18.2 µM |  | 22.2 µM | 18.3 µM | 63.5 µM | 19.5 µM | 48.2 µM | 44.4 µM | 32.6 µM | 27.7 µM | 85.7 µM | > 100 µM | 28.8 µM | > 100 µM | > 100 µM | 25.6 µM | 28.5 µM | 19.5 µM | 28 µM
15 | CC(C)=C1C(=O)C[C@]2(C)C[C@H]3O[C@]3(C)CC[C@@H]3O[C@@]3(C)CC[C@@H]12 | > 50 µM | > 50 µM |  | > 50 µM | > 50 µM | > 50 µM | > 50 µM | > 50 µM | > 50 µM | > 50 µM | > 50 µM | > 50 µM | > 50 µM | > 50 µM | > 50 µM | > 50 µM | > 50 µM | > 50 µM | > 50 µM | > 50 µM
16 | O=C1OCN(c2ccccc2)C12CCN(Cc1ccccc1)CC2 | > 100 µM | > 100 µM |  | 32.6 µM | 31.9 µM | 24.1 µM | 33.1 µM | > 100 µM | > 100 µM | 89 µM | > 100 µM | 34 µM | > 100 µM | > 100 µM | 49.8 µM | > 100 µM | 31.5 µM | 59.9 µM | 55.4 µM | 31.2 µM
